These results are taken from article PMC9100673, “Acridine Based N-Acylhydrazone Derivatives as Potential Anticancer Agents: Synthesis, Characterization and ctDNA/HSA Spectroscopic Binding Properties” (Molecules, 2022).

Structures are written as SMILES.

Test [1] addresses T1, human serum albumin (HSA) (Homo sapiens, UniProt P02768).
T1 construct: purchased Sigma (St. Louis, MO, USA)
Description: HSA competitive site-marker experiment, reverse titration with 3a. As to conditions: for KSV / Kb: 25 °C. The class given is binding. As for the experimental part: Displacement experiments were performed using warfarin and ibuprofen as site marker fluorescence probes, as these agents have been proven to bind with HSA at Sudlow sites I and II, respectively. The fluorescence quenching spectra of HSA:acridine derivatives […] (Figure 5) in the presence of increasing concentrations of specific site markers, warfarin or ibuprofen, were studied.
In addition to the spectra assays, reverse titration studies were also performed. The intensity of the fluorescence of the HSA:site marker complex was recorded at increasing concentrations of acridine derivative 3a, with the obtained results given in Figure S7. […] The obtained data were analysed using Equations (3) and (4). The linear Stern-Volmer dependence and dependence log(F0 − F)/F = log[Q] was used to obtain Stern-Volmer quenching constant values (KSV) and apparent binding constant values (Kb). […] A marked change in the quenching constant was also observed after the addition of ibuprofen, a result which could be partly due to the interaction between derivative 3a and ibuprofen. Similar changes and associated interactions between the marker and the studied ligand have been observed in other studies in which competitive experiments were conducted.
Competitive experiments of HSA were performed using warfarin and ibuprofen as standard site marker ligands. The selected markers for the site I were warfarin, whereas site II was probed using ibuprofen. HSA-acridine derivative (3a–3d) complexes at a concentration ratio of 1:1 ([HSA] = 4 μM) were titrated into specific side markers (0–20 μM). The molar ratio of the HSA:marker complexes were 1:0.5, 1:1, 1:1.5, 1:2, 1:2.5, 1:3, 1:3.5, 1:4, 1:4.5 and 1:5. The reaction mixture of the HSA-acridine derivatives complexes with the side markers were preincubated for 15 min prior to spectral measurements. Additionally, a reverse titration competitive experiment was performed for derivative 3a. The site probe-HSA complex (1:1, [HSA] = 4 μM) was titrated with derivative 3a at a concentration gradient of 0.6–6 μM. In order to determine the binding site of compound 3a, the fluorescence quenching data were analysed using Stern-Volmer and modified Stern-Volmer equations to calculate the value of the Stern-Volmer constants (KSV) and binding constants Kb, and to determine the number of binding sites n. All spectra measurements were performed at 280 nm excitation wavelength and the slits were set at 5 nm for excitation and 10 nm for emission spectra at a range of 290–550 nm and at 25 °C.

The test system of another test is calf thymus DNA (ctDNA). Description: UV-Vis absorption titration with ctDNA (Benesi-Hildebrand). The class given is binding. As to conditions: Tris-HCl pH 7.4, room temperature. The source says:
Changes in absorbance intensity (either hyperchromic or hypochromic) and a shift in the peak position (hypsochromicity or batochromicity) are typical spectral properties closely related to the interaction of a drug with DNA [60, 61]. […] The absorption spectra of compounds 3a–3d in the presence of increasing concentrations of ctDNA show hypochromicity (16–51%) and a slight hypsochromic shift (Δλ = 1–9 nm, 3a–3d), findings which indicate that the acridine derivatives have interacted with DNA (Table 3). […]
The binding constant Kb of compounds 3a–3d was determined using the modified Benesi-Hildebrand Equation (6):(6) A0/A−A0=εB/εB + DNA+εB/εB + DNA × 1/KbDNA, where A0 and A are the absorbances of the acridine derivatives in the absence and presence of ctDNA; εB and εB + DNA are the molar extinction coefficients of the acridine derivatives individually and in the bound complex, respectively; Kb is the binding constant; and [DNA] is the concentration of ctDNA. […]
UV-Vis absorption spectrum of the drug-ctDNA complexes were measured on a Varian Cary 100 Bio UV-Vis Spectrophotometer. The UV-Vis spectra of free compounds 3a–3d and drug-ctDNA complexes were recorded at the wavelength range of 220 to 600 nm. […]

The mark [2] stands for this setting: in the presence of ibuprofen (HSA:marker 1:1).
[3] abbreviates: in the presence of warfarin (HSA:marker 1:1).

T1 sequence (P02768 25-609): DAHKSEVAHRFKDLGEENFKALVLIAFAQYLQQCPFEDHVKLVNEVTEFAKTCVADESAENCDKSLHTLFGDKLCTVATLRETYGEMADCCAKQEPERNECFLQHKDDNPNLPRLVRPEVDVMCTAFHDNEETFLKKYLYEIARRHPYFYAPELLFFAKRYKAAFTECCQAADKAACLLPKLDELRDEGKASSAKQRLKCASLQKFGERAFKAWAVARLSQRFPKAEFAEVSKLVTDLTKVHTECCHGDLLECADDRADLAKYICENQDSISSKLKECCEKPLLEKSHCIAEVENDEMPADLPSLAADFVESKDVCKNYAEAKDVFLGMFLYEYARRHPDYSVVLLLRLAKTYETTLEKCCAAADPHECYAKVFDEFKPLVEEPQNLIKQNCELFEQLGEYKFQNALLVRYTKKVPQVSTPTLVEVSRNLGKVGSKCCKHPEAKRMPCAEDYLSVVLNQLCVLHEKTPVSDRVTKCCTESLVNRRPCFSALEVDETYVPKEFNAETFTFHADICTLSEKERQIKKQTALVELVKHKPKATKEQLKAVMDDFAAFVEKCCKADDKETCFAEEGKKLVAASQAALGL

For `O=C(N/N=C/c1cccc2cc3ccccc3nc12)c1ccccc1` [3a, N′-[(E)-(Acridin-4-yl)methylidene]benzohydrazide], the “binding site on HSA” value in test [1] (competition with warfarin and ibuprofen) is recorded as “Sudlow site I”. The figures for the KSV in test [1] (setting [2]) and in test [1] (setting [3]) were 328000 M⁻¹ and 226000 M⁻¹, respectively. The figures for the Kb in test [1] (setting [2]) and in test [1] (setting [3]) were 667000 M⁻¹ and 254000 M⁻¹, respectively.

In the case of `O=C(N/N=C/c1cccc2cc3ccccc3nc12)c1ccc(F)cc1` [3b, N′-[(E)-Acridin-4-ylmethylidene]-4-fluorobenzohydrazide], the “Kb, binding constant with ctDNA” value in the test on calf thymus DNA (ctDNA) turned out to be 3180 M⁻¹.
